The results in this text go back to ChEMBL document CHEMBL3769303, “Discovery of membrane active benzimidazole quinolones-based topoisomerase inhibitors as potential DNA-binding antimicrobial agents” (Eur J Med Chem, 2016).

In brackets after ≈: the same amount, converted by molar mass.

What all share (format): functional
One test has as its system Bacillus spizizenii. Description: Antibacterial activity against Bacillus subtilis ATCC 6633 by micro broth dilution method. (Dilution methods test growth across graded concentrations, often in twofold steps.)
Test [1] in a line: Antifungal activity against Candida mycoderma ATCC 9888 after 24 hrs by micro broth dilution method. Particulars: Candida vini.
Another test has as its system Micrococcus luteus. Description: Antibacterial activity against Micrococcus luteus ATCC 4698 by micro broth dilution method. Conditions: NCTC 2665.
The subject of test [2] is Staphylococcus aureus. Nature of the test: Antibacterial activity against Staphylococcus aureus ATCC 25923 by micro broth dilution method.
The subject of another test is Saccharomyces cerevisiae. Description: Antifungal activity against Saccharomyces cerevisiae ATCC 9763 after 24 hrs by micro broth dilution method. Conditions: ATCC 9763, 24 h.
The next test concerns Candida albicans. Description: Antifungal activity against Candida albicans ATCC 10231 after 24 hrs by micro broth dilution method. Conditions: ATCC 10231, 24 h.
The subject of a further test is Shigella dysenteriae. Description: Antibacterial activity against Shigella dysenteriae by micro broth dilution method.
The test system of test [3] is Escherichia coli. Description: Antibacterial activity against Escherichia coli DH52 by micro broth dilution method.
The subject of test [4] is Escherichia coli. Nature of the test: Antibacterial activity against Escherichia coli JM109 by micro broth dilution method.
A further test concerns Cyberlindnera jadinii. Nature of the test: Antifungal activity against Candida utilis ATCC 9950 after 24 hrs by micro broth dilution method. Conditions: Williopsis jadinii, ATCC 9950, 24 h.
The test system of a further test is Aspergillus flavus. Description: Antifungal activity against Aspergillus flavus ATCC 204304 after 24 hrs by micro broth dilution method. Particulars: ATCC 204304, 24 h.
The subject of a further test is Salmonella enterica. Nature of the test: Antibacterial activity against Salmonella enterica ATCC 14028 by micro broth dilution method.
A short description of test [5]: Antibacterial activity against Bacillus proteus ATCC 13315 by micro broth dilution method.
Test [6] concerns Staphylococcus aureus. Description: Antibacterial activity against methicillin-resistant Staphylococcus aureus N315 by micro broth dilution method.
A further test relates to Pseudomonas aeruginosa. Description: Antibacterial activity against Pseudomonas aeruginosa ATCC 27853 by micro broth dilution method.

As to `O=C(O)c1cn(C2CC2)c2cc(N3CCN(Cc4nc5ccccc5n4Cc4ccccc4Cl)CC3)c(F)cc2c1=O`, the MIC (commonly the lowest concentration that inhibits growth of the organism) against Bacillus spizizenii came out at 0.5 µg/mL (≈ 0.853 µM); in the test on Micrococcus luteus it was 4 µg/mL (≈ 6.83 µM); in the test on Staphylococcus aureus [2] it was 16 µg/mL (≈ 27.3 µM); with Shigella dysenteriae, 16 µg/mL (≈ 27.3 µM); in the test on Escherichia coli [3], 2 µg/mL (≈ 3.41 µM); in the test with Escherichia coli [4], 16 µg/mL (≈ 27.3 µM). The MIC came to 2 µg/mL (≈ 3.41 µM) in the test on Salmonella enterica, 1 µg/mL (≈ 1.71 µM) in test [5], 4 µg/mL (≈ 6.83 µM) against Staphylococcus aureus [6] and 2 µg/mL (≈ 3.41 µM) in the test with Pseudomonas aeruginosa. The MIC80 – broadly, an inhibitory concentration at the 80% level, which refers to growth in some studies and to a panel of isolates in others – was 4 µg/mL (≈ 6.83 µM) in test [1]; 16 µg/mL (≈ 27.3 µM) in the test on Saccharomyces cerevisiae; 8 µg/mL (≈ 13.7 µM) with Candida albicans; 1 µg/mL (≈ 1.71 µM) in the test on Cyberlindnera jadinii; 0.5 µg/mL (≈ 0.853 µM) in the test with Aspergillus flavus.
For the molecule `CCCCCCn1c(CN2CCN(c3cc4c(cc3F)c(=O)c(C(=O)O)cn4CC)CC2)nc2ccccc21`, the minimum inhibitory concentration (MIC) in the test with Bacillus spizizenii is 16 µg/mL (≈ 30 µM); against Micrococcus luteus it was 4 µg/mL (≈ 7.5 µM); with Staphylococcus aureus [2], 256 µg/mL (≈ 480 µM); against Shigella dysenteriae, 32 µg/mL (≈ 60 µM); against Escherichia coli [3], 4 µg/mL (≈ 7.5 µM); against Escherichia coli [4], 64 µg/mL (≈ 120 µM). Moreover, the minimum inhibitory concentration (MIC) against Salmonella enterica stood at 8 µg/mL (≈ 15 µM); in test [5] it was 4 µg/mL (≈ 7.5 µM); in the test on Staphylococcus aureus [6] it was 32 µg/mL (≈ 60 µM); against Pseudomonas aeruginosa, 16 µg/mL (≈ 30 µM). Further, the MIC80 in [1] came to 8 µg/mL (≈ 15 µM); in the test on Saccharomyces cerevisiae, 128 µg/mL (≈ 240 µM); with Candida albicans, 16 µg/mL (≈ 30 µM); in the test with Cyberlindnera jadinii, 32 µg/mL (≈ 60 µM); against Aspergillus flavus, 128 µg/mL (≈ 240 µM).
With `O=C(O)c1cn(C2CC2)c2cc(N3CCN(Cc4nc5ccc(F)cc5[nH]4)CC3)c(F)cc2c1=O`, the MIC against Bacillus spizizenii was determined as 0.5 µg/mL (≈ 1.04 µM); against Micrococcus luteus, 2 µg/mL (≈ 4.17 µM); against Staphylococcus aureus [2] it was 4 µg/mL (≈ 8.34 µM); against Shigella dysenteriae, 2 µg/mL (≈ 4.17 µM); against Escherichia coli [3], 1 µg/mL (≈ 2.09 µM); in the test with Escherichia coli [4] it was 4 µg/mL (≈ 8.34 µM). For the same molecule, the minimum inhibitory concentration (MIC) in the test on Salmonella enterica came to 1 µg/mL (≈ 2.09 µM); in test [5] it was 1 µg/mL (≈ 2.09 µM); in the test on Staphylococcus aureus [6], 2 µg/mL (≈ 4.17 µM); with Pseudomonas aeruginosa, 2 µg/mL (≈ 4.17 µM). Moreover, the MIC80 was found to be 2 µg/mL (≈ 4.17 µM) in [1]; 0.5 µg/mL (≈ 1.04 µM) with Saccharomyces cerevisiae; 8 µg/mL (≈ 16.7 µM) with Candida albicans; 1 µg/mL (≈ 2.09 µM) in the test on Cyberlindnera jadinii; 1 µg/mL (≈ 2.09 µM) against Aspergillus flavus.
As for `CCCCCCCCCCCCCCCCCCn1c(CN2CCN(c3cc4c(cc3F)c(=O)c(C(=O)O)cn4C3CC3)CC2)nc2ccccc21`, the MIC was found to be 64 µg/mL (≈ 89.6 µM) with Bacillus spizizenii; 128 µg/mL (≈ 179 µM) in the test with Micrococcus luteus; 64 µg/mL (≈ 89.6 µM) in the test on Staphylococcus aureus [2]; 64 µg/mL (≈ 89.6 µM) against Shigella dysenteriae; 128 µg/mL (≈ 179 µM) against Escherichia coli [3]; 128 µg/mL (≈ 179 µM) with Escherichia coli [4]. Further, the MIC was found to be 16 µg/mL (≈ 22.4 µM) against Salmonella enterica, 64 µg/mL (≈ 89.6 µM) in test [5], 64 µg/mL (≈ 89.6 µM) against Staphylococcus aureus [6] and 32 µg/mL (≈ 44.8 µM) in the test with Pseudomonas aeruginosa. In addition, the MIC80 in [1] is 64 µg/mL (≈ 89.6 µM); with Saccharomyces cerevisiae, 64 µg/mL (≈ 89.6 µM); against Candida albicans it was 128 µg/mL (≈ 179 µM); in the test with Cyberlindnera jadinii, 128 µg/mL (≈ 179 µM); in the test on Aspergillus flavus, 64 µg/mL (≈ 89.6 µM).
For the molecule `O=C(O)c1cn(C2CC2)c2cc(N3CCN(Cc4nc5ccc(Cl)cc5[nH]4)CC3)c(F)cc2c1=O`, the MIC in the test on Bacillus spizizenii is 0.5 µg/mL (≈ 1.01 µM); against Micrococcus luteus it was 0.25 µg/mL (≈ 0.504 µM); in the test with Staphylococcus aureus [2] it was 0.5 µg/mL (≈ 1.01 µM); against Shigella dysenteriae, 0.5 µg/mL (≈ 1.01 µM); with Escherichia coli [3] it was 0.5 µg/mL (≈ 1.01 µM); against Escherichia coli [4], 0.5 µg/mL (≈ 1.01 µM). Besides, the MIC (in the test with Salmonella enterica; in [5]; against Staphylococcus aureus [6]; in the test with Pseudomonas aeruginosa) was 0.5 µg/mL (≈ 1.01 µM) in each case. Further, the MIC80 in test [1] is 0.5 µg/mL (≈ 1.01 µM); against Saccharomyces cerevisiae it was 0.25 µg/mL (≈ 0.504 µM); in the test with Candida albicans it was 0.5 µg/mL (≈ 1.01 µM); in the test with Cyberlindnera jadinii, 0.5 µg/mL (≈ 1.01 µM); against Aspergillus flavus, 0.5 µg/mL (≈ 1.01 µM).
As to `O=C(O)c1cn(C2CC2)c2cc(N3CCN(Cc4nc5ccccc5n4Cc4ccccc4F)CC3)c(F)cc2c1=O`, the MIC in the test with Bacillus spizizenii stood at 8 µg/mL (≈ 14 µM); against Micrococcus luteus, 0.25 µg/mL (≈ 0.439 µM); in the test on Staphylococcus aureus [2] it was 16 µg/mL (≈ 28.1 µM); in the test on Shigella dysenteriae, 4 µg/mL (≈ 7.02 µM); with Escherichia coli [3] it was 1 µg/mL (≈ 1.76 µM); in the test on Escherichia coli [4], 2 µg/mL (≈ 3.51 µM). The MIC in the test on Salmonella enterica stood at 0.25 µg/mL (≈ 0.439 µM); in test [5], 1 µg/mL (≈ 1.76 µM); with Staphylococcus aureus [6], 0.25 µg/mL (≈ 0.439 µM); with Pseudomonas aeruginosa, 2 µg/mL (≈ 3.51 µM). Besides, the MIC80 came out at 16 µg/mL (≈ 28.1 µM) in test [1]; 32 µg/mL (≈ 56.2 µM) in the test on Saccharomyces cerevisiae; 32 µg/mL (≈ 56.2 µM) against Candida albicans; 8 µg/mL (≈ 14 µM) against Cyberlindnera jadinii; 16 µg/mL (≈ 28.1 µM) against Aspergillus flavus.
Regarding `CCn1cc(C(=O)O)c(=O)c2cc(F)c(N3CCN(Cc4nc5ccccc5n4Cc4ccc(Cl)cc4Cl)CC3)cc21`, the MIC with Bacillus spizizenii turned out to be 8 µg/mL (≈ 13.1 µM); with Micrococcus luteus, 0.25 µg/mL (≈ 0.411 µM); against Staphylococcus aureus [2], 4 µg/mL (≈ 6.57 µM); against Shigella dysenteriae it was 2 µg/mL (≈ 3.29 µM); against Escherichia coli [3], 1 µg/mL (≈ 1.64 µM); in the test on Escherichia coli [4], 4 µg/mL (≈ 6.57 µM). Moreover, the MIC with Salmonella enterica is 0.25 µg/mL (≈ 0.411 µM); in [5], 1 µg/mL (≈ 1.64 µM); against Staphylococcus aureus [6], 0.125 µg/mL (≈ 0.205 µM); against Pseudomonas aeruginosa it was 1 µg/mL (≈ 1.64 µM). In addition, the MIC80 in test [1] is 1 µg/mL (≈ 1.64 µM); in the test on Saccharomyces cerevisiae, 2 µg/mL (≈ 3.29 µM); with Candida albicans, 0.5 µg/mL (≈ 0.822 µM); in the test on Cyberlindnera jadinii, 0.5 µg/mL (≈ 0.822 µM); in the test with Aspergillus flavus it was 1 µg/mL (≈ 1.64 µM).
